In US6903219B2 (dated 2005):

Row | SMILES | melting point
1 | COc1ccnc(C(=O)N[C@H]2COC(=O)[C@H](Cc3ccccc3)[C@@H](OCC(C)C)[C@H](C)OC2=O)c1O | 168 to 169 °C
2 | CCCO[C@H]1[C@H](C)OC(=O)[C@@H](NC(=O)c2nccc(OC)c2O)COC(=O)[C@@H]1Cc1ccccc1 | 150 to 152 °C
3 | C=C(C)CO[C@H]1[C@H](C)OC(=O)[C@@H](NC(=O)c2nccc(OC)c2OCc2ccccc2)COC(=O)[C@@H]1Cc1ccccc1 | 50 to 52 °C
4 | C=C(C)CO[C@H]1[C@H](C)OC(=O)[C@@H](NC(=O)c2nccc(OC)c2OCOC(C)=O)COC(=O)[C@@H]1Cc1ccccc1 | 102 to 104 °C
